Assay results: US20250163104A1, “MACROCYCLIC IMMUNOMODULATORS” (priority 2021, published 2025)
Where a SMILES comes first, the peptide text is derived from it. Bridges are numbered along the chain shown (N, C = ends). [ ]: non-standard residue; d: D form. The star is where a group is joined. ξ: configuration not given here. Phe(4-COOH) = N[C@@H](Cc1ccc(C(=O)O)cc1)C(=O)O; Bip = N[C@@H](Cc1ccc(-c2ccccc2)cc1)C(=O)O; Phe(3-CN) = N#Cc1cccc(C[C@H](N)C(=O)O)c1; Phe(3-Me) = Cc1cccc(C[C@H](N)C(=O)O)c1; NMehArg = CN[C@@H](CCCCNC(=N)N)C(=O)O; 4Pal = N[C@@H](Cc1ccncc1)C(=O)O; 3Thi = N[C@@H](Cc1ccsc1)C(=O)O; Cha = N[C@@H](CC1CCCCC1)C(=O)O; Cit = NC(=O)NCCC[C@H](N)C(=O)O; Ile(3ξ) = CCC(C)[C@H](N)C(=O)O; Thr(3ξ) = CC(O)[C@H](N)C(=O)O; Ala(CN) = N#CC[C@H](N)C(=O)O; NMeNle = CCCC[C@H](NC)C(=O)O; Carboxymethyl = O=C(O)C*; Orn = NCCC[C@H](N)C(=O)O; Dab = NCC[C@H](N)C(=O)O; Dap = NC[C@H](N)C(=O)O; Propargyl = C#CC*

Each compound was assayed against T1, human PD-1 / PD-L1-Ig binding on Jurkat cell line over-expressing human PD-1 (Jurkat-PD-1) (Homo sapiens, UniProt Q15116) (assay: Jurkat-PD-1 Cell Binding High-Content Screening Assay (CBA)). Conditions: Jurkat HPD1_PDL1 IC50, Jurkat-PD-1 cells, PE-labeled PD-L1-Ig 20 nM final.
T1 construct: expressed in transfected cells; host or cells: Jurkat
T1 sequence (Q15116 25-288): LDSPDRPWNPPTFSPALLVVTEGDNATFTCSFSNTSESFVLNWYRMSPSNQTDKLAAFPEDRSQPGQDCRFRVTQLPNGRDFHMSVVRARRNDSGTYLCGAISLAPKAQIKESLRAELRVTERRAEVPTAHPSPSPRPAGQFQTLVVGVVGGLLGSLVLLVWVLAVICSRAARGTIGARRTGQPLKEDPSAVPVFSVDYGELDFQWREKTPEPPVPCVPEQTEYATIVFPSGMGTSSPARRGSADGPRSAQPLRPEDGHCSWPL
Assay type: cell-based
How it was run: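 Jurkat-hPD-1 cells in DMEM with 10% fetal calf serum receive test compound and are held at 37° C for 2 h. PE-labeled PD-L1-Ig is added at 20 nM final and left for 1 hour. Cells are then fixed and Hoechst-stained, and binding is measured by imaging.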

| SMILES | IC50 [nM] |
| --- | --- |
| Cc1cccc(C[C@@H]2NC(=O)[C@H](CC(=O)O)NC(=O)[C@H](Cc3ccc(C(=O)O)cc3)NC(=O)[C@H](Cc3ccncc3)NC(=O)CSC[C@@H](C(=O)N[C@@H](C)C(N)=O)NC(=O)[C@H]([C@@H](C)O)NC(=O)[C@H](C(C)C)NC(=O)[C@H](CC3CCCCC3)NC(=O)[C@H](Cc3c[nH]cn3)NC(=O)[C@@H](CC(C)C)NC(=O)[C@H](CCCN)NC(=O)[C@H](C(C)C)NC(=O)[C@H](Cc3ccc(-c4ccccc4)cc3)NC(=O)[C@H](C(C)C)NC2=O)c1 [Compound 1581] | 22.4 |

Same assay, conditions: Jurkat-PD-1 cells, PE-labeled PD-L1-Ig 20 nM final; read-out: Jurkat HPD1_PDL1 IC50

| IC50 [nM] | SMILES |
| --- | --- |
| 18.7 | CC(C)C[C@H]1NC(=O)[C@H](CCCN)NC(=O)[C@H](CCC(=O)O)NC(=O)[C@H](Cc2ccc(-c3ccccc3)cc2)NC(=O)[C@H](C(C)C)NC(=O)[C@H](Cc2c[nH]c3ccccc23)NC(=O)[C@H](CC(=O)O)NC(=O)[C@H](Cc2ccc(OCC(=O)O)cc2)NC(=O)[C@H](CN)NC(=O)CSC[C@@H](C(=O)N[C@@H](C)C(N)=O)NC(=O)[C@H]([C@@H](C)O)NC(=O)[C@H](C(C)C)NC(=O)[C@H](CC2CCCCC2)NC(=O)[C@H](Cc2cnc[nH]2)NC1=O [Compound 1518] |
| 6.5 | CCC(C)[C@@H]1NC(=O)[C@H](Cc2ccc(-c3ccccc3)cc2)NC(=O)[C@H](C(C)C)NC(=O)[C@H](Cc2c[nH]c3ccccc23)NC(=O)[C@H](CC(=O)O)NC(=O)[C@H](Cc2ccc(OCC(=O)O)cc2)NC(=O)[C@H](Cc2ccncc2)NC(=O)CSC[C@@H](C(=O)N[C@@H](C)C(N)=O)NC(=O)[C@H](C(C)O)NC(=O)[C@H](C(C)C)NC(=O)[C@H](CC2CCCCC2)NC(=O)[C@H](CCN)NC(=O)[C@@H](CC(C)C)NC(=O)[C@H](CCCN)NC1=O (some centres unmarked) [Compound 2519] |
| 3.7 | C#CCOc1ccc(C[C@@H]2NC(=O)[C@H](CN)NC(=O)CSC[C@@H](C(=O)N[C@@H](CCN)C(N)=O)NC(=O)[C@H](CCC(=O)O)NC(=O)[C@H](C(C)C)NC(=O)[C@H](CC3CCCCC3)NC(=O)[C@H](CCN)NC(=O)[C@@H](CC(C)C)NC(=O)[C@H](CCCN)NC(=O)[C@H](Cc3ccc(OCC(=O)O)cc3)NC(=O)[C@H](Cc3ccc(-c4ccccc4)cc3)NC(=O)[C@H](Cc3ccc(OCC(=O)O)cc3)NC(=O)[C@H](Cc3cccc(C)c3)NC(=O)[C@H](CC(=O)O)NC2=O)cc1 [Compound 1819] ({CH2CO}-[Dap]Y(Propargyl)D[Phe(3-Me)]Y(Carboxymethyl)[Bip]Y(Carboxymethyl)[Orn][dL][Dab][Cha]VEC[Dab]-NH2; thioether N-14) |
| 18 | CC(C)C[C@H]1NC(=O)[C@H](CCCN)NC(=O)[C@H](C(C)C)NC(=O)[C@H](Cc2ccc(-c3ccccc3)cc2)NC(=O)[C@H](C(C)C)NC(=O)[C@H](Cc2c[nH]c3ccccc23)NC(=O)[C@H](CC(=O)O)NC(=O)[C@H](Cc2ccc(OCC(=O)O)cc2)NC(=O)[C@H](CCCCNC(=N)N)N(C)C(=O)CSC[C@@H](C(=O)N[C@@H](C)C(N)=O)NC(=O)[C@H](CO)NC(=O)[C@H](C(C)C)NC(=O)[C@H](CC2CCCCC2)NC(=O)[C@H](CCN)NC1=O [Compound 2513] ({CH2CO}-[NMehArg]Y(Carboxymethyl)DWV[Bip]V[Orn][dL][Dab][Cha]VSCA-NH2; thioether N-14) |
| 92.5 | CCCC[C@H]1C(=O)N[C@@H](Cc2ccc(C(=O)O)cc2)C(=O)N[C@@H](CC(=O)O)C(=O)N[C@@H](Cc2c[nH]c3ccccc23)C(=O)N[C@@H](C(C)C)C(=O)N[C@@H](Cc2ccc(-c3ccccc3)cc2)C(=O)N[C@@H](C(C)C)C(=O)N[C@@H](CCCN)C(=O)N[C@H](CC(C)C)C(=O)N[C@@H](CCN)C(=O)N[C@@H](CC2CCCCC2)C(=O)N[C@@H](C(C)C)C(=O)N[C@@H](C(C)O)C(=O)N[C@H](C(=O)N[C@@H](CC(N)=O)C(N)=O)CSCC(=O)N1C (stereo partly drawn) [Compound 2551] ({CH2CO}-[NMeNle][Phe(4-COOH)]DWV[Bip]V[Orn][dL][Dab][Cha]V[Thr(3ξ)]CN-NH2; thioether N-14) |
| 64.5 | CC(C)[C@@H]1NC(=O)[C@H](Cc2c[nH]c3ccccc23)NC(=O)[C@H](CC(=O)O)NC(=O)[C@H](Cc2ccncc2)NC(=O)[C@H](CN)NC(=O)CSC[C@@H](C(=O)N[C@@H](C)C(N)=O)NC(=O)[C@H]([C@@H](C)O)NC(=O)[C@H](C(C)C)NC(=O)[C@H](CC2CCCCC2)NC(=O)[C@H](CCN)NC(=O)[C@@H](Cc2ccc(O)cc2)NC(=O)[C@H](CCCN)NC(=O)[C@H](CCC(=O)O)NC(=O)[C@H](Cc2ccc(-c3ccccc3)cc2)NC1=O [Compound 1446] ({CH2CO}-[Dap][4Pal]DWV[Bip]E[Orn][dY][Dab][Cha]VTCA-NH2; thioether N-14) |
| 11 | CC(=O)NCCCC[C@@H]1NC(=O)[C@H](C(C)C)NC(=O)[C@H](CC2CCCCC2)NC(=O)[C@H](CCN)NC(=O)[C@@H](CC(C)C)NC(=O)[C@H](CCN)NC(=O)[C@H](C(C)C)NC(=O)[C@H](Cc2ccc(-c3ccccc3)cc2)NC(=O)[C@H](C(C)C)NC(=O)[C@H](Cc2c[nH]c3ccccc23)NC(=O)[C@H](CC(=O)O)NC(=O)[C@H](Cc2ccc(OCC(=O)O)cc2)NC(=O)[C@H](Cc2ccsc2)NC(=O)CSC[C@@H](C(=O)N[C@@H](CCN)C(N)=O)NC1=O [Compound 2613] ({CH2CO}-[3Thi]Y(Carboxymethyl)DWV[Bip]V[Dab][dL][Dab][Cha]VK(Ac)C[Dab]-NH2; thioether N-14) |
| 4 | Cc1cccc(C[C@@H]2NC(=O)[C@H](CC(=O)O)NC(=O)[C@H](Cc3ccc(C(=O)O)cc3)NC(=O)[C@H](Cc3ccncc3)NC(=O)CSC[C@@H](C(=O)N[C@@H](CC(N)=O)C(N)=O)NC(=O)[C@H]([C@@H](C)O)NC(=O)[C@H](C(C)C)NC(=O)[C@H](CC3CCCCC3)NC(=O)[C@H](CCN)NC(=O)[C@@H](CC(C)C)NC(=O)[C@H](CCCN)NC(=O)[C@H](Cc3ccc(OCC(=O)O)cc3)NC(=O)[C@H](Cc3ccc(-c4ccccc4)cc3)NC(=O)[C@H](Cc3ccc(OCC(=O)O)cc3)NC2=O)c1 [Compound 2302] ({CH2CO}-[4Pal][Phe(4-COOH)]D[Phe(3-Me)]Y(Carboxymethyl)[Bip]Y(Carboxymethyl)[Orn][dL][Dab][Cha]VTCN-NH2; thioether N-14) |
| 12 | CC(C)C[C@H]1NC(=O)[C@H](CCCN)NC(=O)[C@H](CCCNC(N)=O)NC(=O)[C@H](Cc2ccc(-c3ccccc3)cc2)NC(=O)[C@H](C(C)C)NC(=O)[C@H](Cc2c[nH]c3ccccc23)NC(=O)[C@H](CC(=O)O)NC(=O)[C@H](Cc2cccc(C#N)c2)NC(=O)[C@H](CN)NC(=O)CSC[C@@H](C(=O)N[C@@H](C)C(N)=O)NC(=O)[C@H]([C@@H](C)O)NC(=O)[C@H](C(C)C)NC(=O)[C@H](CC2CCCCC2)NC(=O)[C@H](CCN)NC1=O [Compound 2093] ({CH2CO}-[Dap][Phe(3-CN)]DWV[Bip][Cit][Orn][dL][Dab][Cha]VTCA-NH2; thioether N-14) |

Same assay, conditions: read-out: Jurkat HPD1_PDL1 IC50; Jurkat-PD-1 cells, PE-labeled PD-L1-Ig 20 nM final

| SMILES | IC50 [nM] |
| --- | --- |
| CCC(C)[C@@H]1NC(=O)[C@H](Cc2ccc(-c3ccccc3)cc2)NC(=O)[C@H](CC#N)NC(=O)[C@H](Cc2c[nH]c3ccccc23)NC(=O)[C@H](CC(=O)O)NC(=O)[C@H](Cc2ccc(OCC(=O)O)cc2)NC(=O)[C@H](C(C)O)NC(=O)CSC[C@@H](C(=O)N[C@@H](CC(N)=O)C(=O)O)NC(=O)[C@H](CO)NC(=O)[C@H](C(C)C)NC(=O)[C@H](CC(C)C)NC(=O)[C@H](CCN)NC(=O)[C@@H](CC(C)C)NC(=O)[C@H](CCCN)NC1=O (stereo partly drawn) [Compound 2579] ({CH2CO}-[Thr(3ξ)]Y(Carboxymethyl)DW[Ala(CN)][Bip][Ile(3ξ)][Orn][dL][Dab]LVSCN-OH; thioether N-14) | 153 |
